Test results from the CheMixHub ionic liquid set.
± gives the uncertainty stated by the source.

Assay: xn = mol fraction of the nth substance listed

CCCC[N+]1(C)CCCC1.F[B-](F)(F)F + CC1COC(=O)O1 + CCCC[N+]1(C)CCCC1.O=S(=O)([N-]S(=O)(=O)C(F)(F)F)C(F)(F)F
293.15 K, 100 kPa, x2 = 0.4706, x3 = 0.05882
Settings	electrical conductivity [S/m]	viscosity [mPa·s]
–	0.96 ± 0.06	7.6 ± 1.2

CC(=O)[O-].CCC[N+]1(C)CCN(C)CC1 + CC#N
Settings	electrical conductivity [S/m]
298 K, 101 kPa, x2 = 0.791	1.76 ± 0.04

CCO + CC(=O)[O-].CC[n+]1ccn(C)c1
101 kPa, x1 = 1
Settings	viscosity [mPa·s]
318.15 K	0.755 ± 0.016
338.15 K	0.543 ± 0.012

CC(=O)[O-].CC[NH2+]CC + CC(C)=O
298.15 K, 101 kPa
Settings	electrical conductivity [S/m]	viscosity [mPa·s]
x1 = 0.0095	0.001 ± 0.001	–
x1 = 0.0238	0.033 ± 0.001	–
x1 = 0.0523	0.085 ± 0.003	–
x1 = 0.0729	0.131 ± 0.004	–
x1 = 0.098	–	0.734 ± 0.044
x1 = 0.0983	0.171 ± 0.005	–
x1 = 0.194	–	1.092 ± 0.066
x1 = 0.1981	0.328 ± 0.01	–
x1 = 0.2979	0.427 ± 0.013	–
x1 = 0.299	–	2.01 ± 0.12
x1 = 0.401	0.479 ± 0.014	–
x1 = 0.402	–	3.5 ± 0.21
x1 = 0.4945	0.505 ± 0.015	–
x1 = 0.5	–	5.74 ± 0.35
x1 = 0.599	–	8.92 ± 0.55
x1 = 0.6022	0.459 ± 0.014	–
x1 = 0.701	–	14.91 ± 0.92
x1 = 0.7021	0.427 ± 0.013	–
x1 = 0.7971	0.387 ± 0.012	–
x1 = 0.802	–	24.3 ± 1.5
x1 = 0.9002	0.341 ± 0.01	–
x1 = 0.903	–	38.6 ± 2.4
x2 = 0.003	–	58.7 ± 3.8

CCCCCCCCCCCCCC[n+]1ccccc1.O=C([O-])C(O)c1ccccc1 + CC(C)C[C@H](N)C(=O)O + O
electrical conductivity [S/m], 101 kPa
Settings	293.15 K	298.15 K	303.15 K	308.15 K	313.15 K
x1 = 4.89e-06, x2 = 0.0009002	0.00294 ± 0.00079	0.00331 ± 0.00088	0.00369 ± 0.00098	0.0041 ± 0.0011	0.0045 ± 0.0012
x1 = 5.65e-06, x2 = 0.001799	0.00333 ± 0.0007	0.00365 ± 0.00077	0.004 ± 0.00084	0.00436 ± 0.00095	0.0047 ± 0.001
x1 = 6.85e-06, x2 = 0	0.00248 ± 0.00074	0.00278 ± 0.00083	0.00309 ± 0.00092	0.0034 ± 0.001	0.0037 ± 0.0011
x1 = 1.069e-05, x2 = 0.0009002	0.00459 ± 0.00073	0.0052 ± 0.00081	0.00582 ± 0.00091	0.0064 ± 0.001	0.0071 ± 0.0011
x1 = 1.13e-05, x2 = 0.001799	0.00474 ± 0.00073	0.00522 ± 0.00082	0.00572 ± 0.00089	0.0065 ± 0.001	0.0071 ± 0.0011
x1 = 1.424e-05, x2 = 0	0.00472 ± 0.00079	0.00529 ± 0.00089	0.00587 ± 0.00099	0.0065 ± 0.0011	0.0071 ± 0.0012
x1 = 1.54e-05, x2 = 0.0009002	0.0059 ± 0.00085	0.00666 ± 0.00096	0.0074 ± 0.001	0.0083 ± 0.0012	0.0091 ± 0.0013
x1 = 1.695e-05, x2 = 0.001799	0.00622 ± 0.00087	0.00689 ± 0.00097	0.0075 ± 0.0011	0.0086 ± 0.0012	0.0093 ± 0.0013
x1 = 2.084e-05, x2 = 0.0009002	0.00743 ± 0.00094	0.0084 ± 0.0011	0.0093 ± 0.0012	0.0104 ± 0.0013	0.0114 ± 0.0014
x1 = 2.126e-05, x2 = 0	0.00671 ± 0.0009	0.0076 ± 0.001	0.0084 ± 0.0011	0.0093 ± 0.0013	0.0101 ± 0.0014
x1 = 2.205e-05, x2 = 0.001799	0.0077 ± 0.00098	0.0086 ± 0.0011	0.0094 ± 0.0012	0.0106 ± 0.0013	0.0116 ± 0.0015
x1 = 2.519e-05, x2 = 0.0009002	0.0086 ± 0.001	0.0097 ± 0.0011	0.0107 ± 0.0013	0.012 ± 0.0014	0.0132 ± 0.0015
x1 = 2.733e-05, x2 = 0.001799	0.0091 ± 0.0011	0.0102 ± 0.0012	0.0111 ± 0.0013	0.0125 ± 0.0015	0.0137 ± 0.0016
x1 = 2.811e-05, x2 = 0	0.0086 ± 0.001	0.0097 ± 0.0012	0.0108 ± 0.0013	0.0122 ± 0.0015	0.0131 ± 0.0016
x1 = 2.972e-05, x2 = 0.0009002	0.0098 ± 0.0011	0.0111 ± 0.0013	0.0124 ± 0.0015	0.0138 ± 0.0016	0.0152 ± 0.0018
x1 = 3.28e-05, x2 = 0.001799	0.0103 ± 0.0011	0.0116 ± 0.0013	0.0129 ± 0.0014	0.0144 ± 0.0016	0.0158 ± 0.0018
x1 = 3.46e-05, x2 = 0	0.0103 ± 0.0011	0.0116 ± 0.0013	0.0129 ± 0.0014	0.0145 ± 0.0016	0.0157 ± 0.0018
x1 = 3.552e-05, x2 = 0.0009002	0.0112 ± 0.0012	0.0126 ± 0.0014	0.0141 ± 0.0015	0.0157 ± 0.0017	0.0174 ± 0.0019
x1 = 3.863e-05, x2 = 0.001799	0.0115 ± 0.0012	0.0129 ± 0.0014	0.0144 ± 0.0015	0.016 ± 0.0017	0.0177 ± 0.0019
x1 = 4.108e-05, x2 = 0	0.0117 ± 0.0012	0.0131 ± 0.0014	0.0146 ± 0.0015	0.0161 ± 0.0017	0.0179 ± 0.0019
x1 = 4.186e-05, x2 = 0.0009001	0.0124 ± 0.0013	0.014 ± 0.0015	0.0157 ± 0.0016	0.0175 ± 0.0018	0.0194 ± 0.002
x1 = 4.41e-05, x2 = 0.001799	0.0124 ± 0.0013	0.0138 ± 0.0014	0.0155 ± 0.0016	0.0172 ± 0.0018	0.0191 ± 0.002
x1 = 4.811e-05, x2 = 0	0.0129 ± 0.0013	0.0144 ± 0.0015	0.0161 ± 0.0017	0.0179 ± 0.0019	0.0198 ± 0.0021
x1 = 4.838e-05, x2 = 0.0009001	0.0134 ± 0.0014	0.0151 ± 0.0015	0.017 ± 0.0017	0.0189 ± 0.0019	0.0211 ± 0.0022
x1 = 5.139e-05, x2 = 0.001799	0.0135 ± 0.0014	0.0152 ± 0.0016	0.0168 ± 0.0017	0.019 ± 0.002	0.021 ± 0.0022
x1 = 5.388e-05, x2 = 0	0.0137 ± 0.0014	0.0154 ± 0.0016	0.0172 ± 0.0018	0.0191 ± 0.002	0.0211 ± 0.0022
x1 = 5.509e-05, x2 = 0.0009001	0.0144 ± 0.0015	0.0162 ± 0.0016	0.018 ± 0.0018	0.0203 ± 0.0021	0.0225 ± 0.0023
x1 = 5.868e-05, x2 = 0.001799	0.0146 ± 0.0015	0.0162 ± 0.0016	0.018 ± 0.0018	0.0203 ± 0.0021	0.0225 ± 0.0023
x1 = 5.982e-05, x2 = 0	0.0145 ± 0.0015	0.0163 ± 0.0017	0.0182 ± 0.0019	0.0202 ± 0.0021	0.0224 ± 0.0023
x1 = 6.179e-05, x2 = 0.0009001	0.0152 ± 0.0016	0.0172 ± 0.0018	0.0192 ± 0.002	0.0215 ± 0.0022	0.0239 ± 0.0024
x1 = 6.559e-05, x2 = 0	0.0153 ± 0.0016	0.0172 ± 0.0018	0.0192 ± 0.0019	0.0213 ± 0.0022	0.0236 ± 0.0024
x1 = 6.56e-05, x2 = 0.001799	0.0153 ± 0.0015	0.0171 ± 0.0017	0.0192 ± 0.002	0.0216 ± 0.0022	0.0239 ± 0.0024
x1 = 6.813e-05, x2 = 0.0009001	0.0161 ± 0.0016	0.0181 ± 0.0019	0.0203 ± 0.0021	0.0227 ± 0.0023	0.0252 ± 0.0026
x1 = 7.081e-05, x2 = 0	0.016 ± 0.0016	0.018 ± 0.0018	0.02 ± 0.002	0.0223 ± 0.0023	0.0246 ± 0.0025
x1 = 7.216e-05, x2 = 0.001799	0.0161 ± 0.0016	0.0181 ± 0.0018	0.0203 ± 0.0021	0.0227 ± 0.0023	0.0252 ± 0.0026
x1 = 7.484e-05, x2 = 0.0009001	0.0169 ± 0.0017	0.0191 ± 0.0019	0.0214 ± 0.0022	0.0239 ± 0.0024	0.0266 ± 0.0027
x1 = 7.604e-05, x2 = 0	0.0167 ± 0.0017	0.0187 ± 0.0019	0.0209 ± 0.0021	0.0232 ± 0.0024	0.0258 ± 0.0026
x1 = 7.908e-05, x2 = 0.001799	0.0169 ± 0.0017	0.019 ± 0.0019	0.0214 ± 0.0022	0.0238 ± 0.0024	0.0265 ± 0.0027
x1 = 8.072e-05, x2 = 0	0.0173 ± 0.0018	0.0194 ± 0.002	0.0217 ± 0.0022	0.0241 ± 0.0024	0.0266 ± 0.0027
